Results reported in PubChem BioAssay AID248 (DTP/NCI, 2004).
Several values for one entry are separate records, joined by “and”; a condition that tells them apart may be missing. Identical values can stand only once. Toxic doses and inconclusive results are not listed. Cut-off read from the data, not from the text of the source: active = T/C of 150% or more; inactive = T/C below 125%.

Tested on: L1210 leukemia ip in BDF1 mice, survival T/C
Assay: NCI In Vivo Anticancer Drug Screen. Data for tumor model L1210 Leukemia (intraperitoneal) in B6D2F1 (BDF1) mice
Conditions: endpoint: mean survival time, higher = longer survival
Summary of the method: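 Transplantable tumor model; survival measured in treated vs vehicle control mice. Value = treated/control.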

[1] = dose: 75.0 mg/kg/injection, schedule: Q01DX001 (ip), vehicle: saline
[2] = dose: 100.0 mg/kg/injection, schedule: Q04DX003 (ip), vehicle: saline
[3] = dose: 200.0 mg/kg/injection, schedule: Q04DX003 (ip), vehicle: saline
[4] = dose: 100.0 mg/kg/injection, schedule: Q01DX001 (ip), vehicle: Klucel (hydroxypropylcellulose) (HPC)
[5] = dose: 200.0 mg/kg/injection, schedule: Q01DX001 (ip), vehicle: Klucel (hydroxypropylcellulose) (HPC)
[6] = dose: 100.0 mg/kg/injection, schedule: Q01DX001 (ip), vehicle: saline
[7] = dose: 200.0 mg/kg/injection, schedule: Q01DX001 (ip), vehicle: saline
[8] = dose: 400.0 mg/kg/injection, schedule: Q01DX001 (ip), vehicle: saline
[9] = dose: 100.0 mg/kg/injection, schedule: Q04DX003 (ip), vehicle: saline with Tween-80
[10] = dose: 200.0 mg/kg/injection, schedule: Q04DX003 (ip), vehicle: saline with Tween-80
[11] = dose: 400.0 mg/kg/injection, schedule: Q04DX003 (ip), vehicle: saline with Tween-80

Measured: T/C

O=S1CCCO1 (configuration not stated)
inactive: dose: 4.7 mg/kg/injection, schedule: Q01DX009 (ip), vehicle: saline 100 % of control | dose: 9.4 mg/kg/injection, schedule: Q01DX009 (ip), vehicle: saline 96 % of control | dose: 18.8 mg/kg/injection, schedule: Q01DX009 (ip), vehicle: saline 93 % of control | [1] 98 % of control

O=c1ccn(CCC(CO)CO)c(=O)[nH]1
inactive: [2] 101 % of control | [3] 106 % of control | dose: 400.0 mg/kg/injection, schedule: Q04DX003 (ip), vehicle: saline 102 % of control

CCCCCCCCCCCCCCCOc1cccc(OCCCCCCCCCCCCCCC)c1
inactive: dose: 50.0 mg/kg/injection, schedule: Q01DX001 (ip), vehicle: Klucel (hydroxypropylcellulose) (HPC) 92 % of control | [4] 92 % of control | [5] 92 % of control

CC/C(=C(/CC)c1ccc(OP(=O)(O)O)cc1)c1ccc(OP(=O)(O)O)cc1
inactive: dose: 100.0 mg/kg/injection, schedule: Q01DX001 (ip), vehicle: carboxymethylcellulose (CMC) 108 % of control | dose: 100.0 mg/kg/injection, schedule: Q01DX001 (ip), vehicle: water 101 % of control | dose: 100.0 mg/kg/injection, schedule: Q04DX003 (sc), vehicle: olive oil, sesame oil, peanut oil 103 % of control | dose: 200.0 mg/kg/injection, schedule: Q01DX001 (ip), vehicle: carboxymethylcellulose (CMC) 95 % of control | dose: 200.0 mg/kg/injection, schedule: Q01DX001 (ip), vehicle: water 97 % of control | dose: 200.0 mg/kg/injection, schedule: Q04DX003 (sc), vehicle: olive oil, sesame oil, peanut oil 102 % of control | dose: 400.0 mg/kg/injection, schedule: Q01DX001 (ip), vehicle: carboxymethylcellulose (CMC) 106 % of control | dose: 400.0 mg/kg/injection, schedule: Q01DX001 (ip), vehicle: water 98 % of control | dose: 400.0 mg/kg/injection, schedule: Q04DX003 (sc), vehicle: olive oil, sesame oil, peanut oil 107 % of control

Cc1ccc(S(=O)(=O)O)cc1
inactive: dose: 12.5 mg/kg/injection, schedule: Q01DX009 (ip), vehicle: saline 101 % of control | dose: 25.0 mg/kg/injection, schedule: Q01DX009 (ip), vehicle: saline 98 % of control | dose: 50.0 mg/kg/injection, schedule: Q01DX009 (ip), vehicle: saline 98 % of control | dose: 100.0 mg/kg/injection, schedule: Q01DX009 (ip), vehicle: saline 97 % of control | dose: 100.0 mg/kg/injection, schedule: Q04DX002 (ip), vehicle: saline 97 % of control | [2] 102 % of control | dose: 200.0 mg/kg/injection, schedule: Q01DX009 (ip), vehicle: saline 96 % of control | dose: 200.0 mg/kg/injection, schedule: Q04DX002 (ip), vehicle: saline 101 % of control | dose: 400.0 mg/kg/injection, schedule: Q04DX002 (ip), vehicle: saline 108 % of control

O=S(=O)(Nc1cc(Cl)c(NS(=O)(=O)c2ccccc2)c(S(=O)(=O)c2ccccc2)c1Cl)c1ccccc1
inactive: [4] 97 % of control | dose: 100.0 mg/kg/injection, schedule: Q04DX003 (ip), vehicle: Klucel (hydroxypropylcellulose) (HPC) 101 % of control | [5] 93 % of control | dose: 200.0 mg/kg/injection, schedule: Q04DX003 (ip), vehicle: Klucel (hydroxypropylcellulose) (HPC) 102 % of control | dose: 400.0 mg/kg/injection, schedule: Q01DX001 (ip), vehicle: Klucel (hydroxypropylcellulose) (HPC) 97 % of control | dose: 400.0 mg/kg/injection, schedule: Q04DX003 (ip), vehicle: Klucel (hydroxypropylcellulose) (HPC) 106 % of control

O=C(CCCC(=O)N/N=C/c1cccc(Cl)c1)N/N=C\c1cccc(Cl)c1
inactive: dose: 50.0 mg/kg/injection, schedule: Q01DX001 (ip), vehicle: other 90 % of control | dose: 100.0 mg/kg/injection, schedule: Q01DX001 (ip), vehicle: other 93 % of control | dose: 400.0 mg/kg/injection, schedule: Q01DX001 (ip), vehicle: other 88 % of control

[N-]=[N+]=CC(=O)OCC(N)C(=O)O (configuration not stated)
inactive: dose: 100.0 mg/kg/injection, schedule: Q01DX009 (ip), vehicle: water 103 % of control | dose: 200.0 mg/kg/injection, schedule: Q01DX009 (ip), vehicle: water 105 % of control | dose: 400.0 mg/kg/injection, schedule: Q01DX009 (ip), vehicle: water 89 % of control

CC(C)=CCC(CCN1CCOCC1)(C(N)=O)c1cccc2ccccc12 (configuration not stated)
inactive: dose: 6.25 mg/kg/injection, schedule: Q04DX003 (ip), vehicle: Klucel (hydroxypropylcellulose) (HPC) 104 % of control | dose: 12.5 mg/kg/injection, schedule: Q01DX009 (ip), vehicle: Klucel (hydroxypropylcellulose) (HPC) 96 % of control | dose: 12.5 mg/kg/injection, schedule: Q04DX003 (ip), vehicle: Klucel (hydroxypropylcellulose) (HPC) 94 % of control | dose: 25.0 mg/kg/injection, schedule: Q01DX009 (ip), vehicle: Klucel (hydroxypropylcellulose) (HPC) 104 % of control | dose: 25.0 mg/kg/injection, schedule: Q04DX003 (ip), vehicle: Klucel (hydroxypropylcellulose) (HPC) 98 % of control | dose: 50.0 mg/kg/injection, schedule: Q01DX009 (ip), vehicle: Klucel (hydroxypropylcellulose) (HPC) 90 % of control

COc1cc(Br)c(CC(=O)c2cn(C(=O)Cc3cc(OC)c(OC)cc3Br)c3ccc(Br)cc23)cc1OC
inactive: dose: 50.0 mg/kg/injection, schedule: Q01DX001 (ip), vehicle: saline 106 % of control | [6] 96 % of control | [7] 102 % of control | [8] 96 % of control

O=C(O)c1cscc1Cc1ccccc1
inactive: [9] 90 % of control | [10] 94 % of control | [11] 95 % of control

Oc1[nH]c2ccccc2c1N=NC(=S)Nc1ccccc1
inactive: [1] 91 % of control | dose: 150.0 mg/kg/injection, schedule: Q01DX001 (ip), vehicle: saline 87 % of control

COc1ccc(CC(=O)N2CCc3cc(OC)c(OC)cc3C2O)cc1OC (configuration not stated)
inactive: dose: 100.0 mg/kg/injection, schedule: Q01DX009 (ip), vehicle: saline with Tween-80 96 % of control | [9] 100 % of control | dose: 200.0 mg/kg/injection, schedule: Q01DX009 (ip), vehicle: saline with Tween-80 91 % of control | [10] 103 % of control | dose: 400.0 mg/kg/injection, schedule: Q01DX009 (ip), vehicle: saline with Tween-80 88 % of control | [11] 102 % of control

Nc1cccc(Nc2cc(S(=O)(=O)O)c(N)c3c2C(=O)c2ccccc2C3=O)c1
inactive: dose: 5.0 mg/kg/injection, schedule: Q01DX001 (ip), vehicle: saline 100 % of control | dose: 10.0 mg/kg/injection, schedule: Q01DX001 (ip), vehicle: saline 94 % of control | dose: 20.0 mg/kg/injection, schedule: Q01DX001 (ip), vehicle: saline 100 % of control | dose: 40.0 mg/kg/injection, schedule: Q01DX001 (ip), vehicle: saline 100 % of control | dose: 80.0 mg/kg/injection, schedule: Q01DX001 (ip), vehicle: saline 103 % of control | [6] 93 % of control | [7] 100 % of control

N#CCC(=O)NCCc1ccccn1
inactive: dose: 25.0 mg/kg/injection, schedule: Q04DX002 (ip), vehicle: saline with Tween-80 93 % of control | dose: 50.0 mg/kg/injection, schedule: Q04DX002 (ip), vehicle: saline with Tween-80 97 % of control | dose: 100.0 mg/kg/injection, schedule: Q04DX002 (ip), vehicle: saline with Tween-80 98 % of control and 101 % of control

O=C(OCCN1CCCCC1)C(O)C1CCCCC1 (configuration not stated)
inactive: [2] 101 % of control | [3] 103 % of control

O=[N+]([O-])c1ccc(/C=N/N2CCN(/N=C/c3ccc([N+](=O)[O-])cc3)CC2)cc1
inactive: [6] 96 % of control | [7] 92 % of control | [8] 92 % of control

Nc1nc(N)c(CCc2ccccc2)c(=O)[nH]1
inactive: [9] 100 % of control | [10] 94 % of control | [11] 94 % of control

CC(Cl)CN(CC(C)Cl)C(=O)Oc1ccccc1[N+](=O)[O-] (configuration not stated)
inactive: dose: 100.0 mg/kg/injection, schedule: Q01DX009 (ip), vehicle: Klucel (hydroxypropylcellulose) (HPC) 93 % of control | dose: 200.0 mg/kg/injection, schedule: Q01DX009 (ip), vehicle: Klucel (hydroxypropylcellulose) (HPC) 104 % of control | dose: 400.0 mg/kg/injection, schedule: Q01DX009 (ip), vehicle: Klucel (hydroxypropylcellulose) (HPC) 93 % of control
